Like-named read-outs stand apart in the source and are kept apart here.
Tests used:
A2A receptor [1] = biological target: T1, A2A receptor (Homo sapiens, UniProt P29274); experiment: Inhibition of cAMP production in HEK cells; format: cell-based; conditions: HEK-293 cells with A2A receptor
in vitro = conditions: human, Caco-2, pH 7.4
A2A receptor [2] = biological target: T1, A2A receptor; experiment: Human IL-2 T cell assay (restoration of IL-2 production in CGS-21680-treated CD3+ T cells); format: cell-based; design: endogenous in cells; host or cells: human CD3+ T cells isolated from venous blood of healthy volunteers
Description: When T-cells are activated, they produce pro-inflammatory cytokines. When the A2A receptor is activated in T cells, the amount of cytokines produced in response to stimulation of T-cells is reduced.
Venous blood from healthy volunteers, all of whom signed an informed consent approved by the Ethics Committee (FOR-UIC-BV-050-01-01 ICF_HBS_HD Version 5.0), was obtained via ImmuneHealth (Centre Hospitalier Universitaire Tivoli, La Louviere, Belgium). Mononuclear cells were collected by density gradient centrifugation, using SepMate-50 tubes (StemCell Technologies, Grenoble, France) and Lymphoprep (Axis-shield, Oslo, Norway) according to the manufacturer's instructions. CD3+ T cells were isolated by immunomagnetic negative selection, using the EasySep Human T Cell Isolation Kit (StemCell Technologies) as per manufacturer's instructions. CD3+ T cells were stored in heat inactivated foetal bovine serum (hiFBS; Gibco, ThermoFisher Scientific, Merelbeke, Belgium) containing 10% DMSO in liquid nitrogen.
Human purified CD3+ T cells were thawed and washed twice with RPMI1640 medium (with UltraGlutamine; Lonza, Verviers, Belgium) supplemented with 1× non-essential amino acids (Lonza), 2% Pen/Strep (Lonza) and 1 mM Sodium Pyruvate (Gibco) (complete media), containing 10% hiFBS. The cells were suspended either in complete media containing 20% hiFBS or in 100% heat inactivated human serum (hiHS; Sigma-Aldrich, Diegem, Belgium). Cells were activated by adding anti-CD3 and anti-CD28 coated microbeads (Dynabeads human T-activator CD3/CD28; Life Technologies, Paisley, UK), suspended either in complete media containing 20% hiFBS or in 100% hiHS. […] Serial dilutions of the compounds of the present invention were prepared and added to the wells. The cells were placed in a 37° C. humidified tissue culture incubator with 5% CO2 for 72 hours. After 72 hours, supernatants were sampled and IL-2 was quantified using the IL-2 (human) AlphaLISA Biotin-Free Detection Kit (AL333F; Perkin-Elmer, Zaventem, Belgium), according to the manufacturer's instructions.

Caco-2 cells = experiment: Permeability and efflux in Caco-2 cells; conditions: Caco-2 monolayer, 2 μM, 120 minutes, pH 7.4
A2AR = A2AR (Mus musculus, UniProt Q60613); conditions: for Score (locomotion / immobility): score observed in at least 60-100% of mice for 30 minutes
A2AR, sequence (Q60613 whole entry): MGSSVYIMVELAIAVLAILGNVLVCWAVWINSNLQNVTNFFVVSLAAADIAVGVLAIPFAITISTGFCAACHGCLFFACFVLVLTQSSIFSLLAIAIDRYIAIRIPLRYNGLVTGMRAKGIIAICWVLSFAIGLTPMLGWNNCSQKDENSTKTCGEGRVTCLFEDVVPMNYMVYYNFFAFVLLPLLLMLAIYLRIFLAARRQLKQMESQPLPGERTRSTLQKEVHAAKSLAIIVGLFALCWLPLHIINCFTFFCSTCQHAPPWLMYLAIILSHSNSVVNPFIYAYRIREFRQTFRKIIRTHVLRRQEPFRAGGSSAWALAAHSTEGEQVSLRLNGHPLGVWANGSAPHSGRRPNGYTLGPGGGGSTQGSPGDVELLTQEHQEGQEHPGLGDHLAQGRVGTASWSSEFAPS

[3] = IC50 (nM) (3 nM NECA as agonist, 0.1% BSA), 3 nM NECA as agonist, 0.1% BSA
[4] = IC50 (nM) (5 nM NECA as agonist, 2% HSA), 5 nM NECA as agonist, 2% HSA
[5] = IC50 (nM) (5 μM Adenosine as agonist, 2.0% HSA), 5 μM Adenosine as agonist, 2.0% HSA
[6] = IC50 (nM) (500 nM CGS-21680 as agonist, 10% FBS), restoration of IL-2 production, human CD3+ T cells, anti-CD3/CD28 beads, 500 nM CGS-21680, 10% FBS, 72 hours
[7] = IC50 (nM) (500 nM CGS-21680 as agonist, 50% HSA), restoration of IL-2 production, human CD3+ T cells, anti-CD3/CD28 beads, 500 nM CGS-21680, 50% HSA, 72 hours
[8] = IC50 (nM) (5000 nM CGS-21680 as agonist, 50% HSA), restoration of IL-2 production, human CD3+ T cells, anti-CD3/CD28 beads, 5000 nM CGS-21680, 50% HSA, 72 hours

T1 sequence (P29274 whole entry): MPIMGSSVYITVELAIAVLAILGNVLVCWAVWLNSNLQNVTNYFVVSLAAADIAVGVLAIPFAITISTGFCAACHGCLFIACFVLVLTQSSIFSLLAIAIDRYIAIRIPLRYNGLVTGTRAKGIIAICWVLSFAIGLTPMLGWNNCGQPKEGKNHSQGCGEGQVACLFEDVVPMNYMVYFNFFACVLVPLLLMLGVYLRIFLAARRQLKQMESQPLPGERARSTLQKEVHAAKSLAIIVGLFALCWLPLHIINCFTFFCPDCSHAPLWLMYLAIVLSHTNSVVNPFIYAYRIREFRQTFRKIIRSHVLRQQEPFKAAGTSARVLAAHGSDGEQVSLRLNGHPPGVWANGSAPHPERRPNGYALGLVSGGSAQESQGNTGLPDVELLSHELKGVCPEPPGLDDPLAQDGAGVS

| Score (locomotion / immobility) (A2AR; 1 mg/kg PO 30 min prior to CGS21680) | Score (locomotion / immobility) (A2AR; 10 mg/kg PO 30 min prior to CGS21680) | effect on CGS21680 induced immobility (A2AR; P.O. at 10 mg/kg, 30 min prior to CGS21680) | Compound | IC50 (A2A receptor [1]; [3]) [nM] | IC50 (A2A receptor [1]; [4]) [nM] | IC50 (A2A receptor [1]; [5]) [nM] | efflux ratio at 120 min, 2 μM (in vitro) | IC50 (A2A receptor [2]) [nM] | IC50 (A2A receptor [2]; [6]) [nM] | IC50 (A2A receptor [2]; [7]) [nM] | IC50 (A2A receptor [2]; [8]) [nM] | Efflux ratio (Caco-2 cells) |
| --- | --- | --- | --- | --- | --- | --- | --- | --- | --- | --- | --- | --- |
| – | – | – | CC(C)(Oc1ccc(N2CCN(CCn3c(=O)sc4c3nc(N)n3nc(-c5ccco5)nc43)CC2)c(F)c1)C(=O)O [Compound 39, 2-(4-(4-(2-(5-amino-8-(furan-2-yl)-2-oxothiazolo[5,4-e][1,2,4]triazolo[1,5-c]pyrimidin-3(2H)-yl)ethyl)piperazin-1-yl)-3-fluorophenoxy)-2-methylpropanoic acid] | 0.8 | 15 | 719 | 110 | 5.3 | 1 | 12 | 150 | – |
| – | – | – | Nc1nc2c(sc(=O)n2CCN2CCN(c3cc(OCC(=O)O)c(F)cc3F)CC2)c2nc(-c3ccco3)nn12 [Compound 43, 2-(5-(4-(2-(5-amino-8-(furan-2-yl)-2-oxothiazolo[5,4-e][1,2,4]triazolo[1,5-c]pyrimidin-3(2H)-yl)ethyl)piperazin-1-yl)-2,4-difluorophenoxy)acetic acid] | 0.2 | 1 | 36 | 164 | – | – | – | 51 | – |
| – | – | – | Nc1nc2c(sc(=O)n2CCN2CCN(c3ccc(C(=O)O)cc3F)CC2)c2nc(-c3ccco3)nn12 [Compound 44, 4-(4-(2-(5-amino-8-(furan-2-yl)-2-oxothiazolo[5,4-e][1,2,4]triazolo[1,5-c]pyrimidin-3(2H)-yl)ethyl)piperazin-1-yl)-3-fluorobenzoic acid] | 0.5 | 11 | 127 | 69 | – | – | – | 33 | – |
| – | – | – | Nc1nc2c(sc(=O)n2CCN2CCN(c3ccc(OCc4nc[nH]n4)cc3F)CC2)c2nc(-c3ccco3)nn12 [Compound 49, 3-(2-(4-(4-((1H-1,2,4-triazol-3-yl)methoxy)-2-fluorophenyl)piperazin-1-yl)ethyl)-5-amino-8-(furan-2-yl)thiazolo[5,4-e][1,2,4]triazolo[1,5-c]pyrimidin-2(3H)-one] | 0.5 | 16 | 465 | 97 | – | – | – | 61 | – |
| – | – | – | CNCCNC(=O)COc1ccc(N2CCN(CCn3c(=O)sc4c3nc(N)n3nc(-c5ccco5)nc43)CC2)c(F)c1 [Compound 50, 2-(4-(4-(2-(5-amino-8-(furan-2-yl)-2-oxothiazolo[5,4-e][1,2,4]triazolo[1,5-c]pyrimidin-3(2H)-yl)ethyl)piperazin-1-yl)-3-fluorophenoxy)-N-(2-(methylamino)ethyl)acetamide] | 0.3 | – | 13 | 38 | 4.3 | 1 | 2.2 | 28 | – |
| – | – | – | Nc1nc2c(sc(=O)n2CCN2CCN(c3cc(O[C@H]4CNC[C@@H]4F)c(F)cc3F)CC2)c2nc(-c3ccco3)nn12 [Compound 92, 5-amino-3-(2-(4-(2,4-difluoro-5-(((3S,4S)-4-fluoropyrrolidin-3-yl)oxy)phenyl)piperazin-1-yl)ethyl)-8-(furan-2-yl)thiazolo[5,4-e][1,2,4]triazolo[1,5-c]pyrimidin-2(3H)-one] | 0.7 | – | 388 | – | – | – | – | – | 101 |
| + | 0 | inhibited CGS21680 induced immobility | COCCOc1ccc(N2CCN(CCn3ncc4c3nc(N)n3nc(-c5ccco5)nc43)CC2)cc1 [Preladenant] | – | – | – | – | – | – | – | – | – |

— patent US10995101B2, “2-oxo-thiazole derivatives as A2A inhibitors and compounds for use in the treatment of cancers” (iTeos Therapeutics SA, priority 2017, dated 2021)
